Results taken from patent publication US20260248763A1 (BIO GENUINE (SHANGHAI) BIOTECH CO., LTD, priority 2023, published 2026).

What was measured:
V1aR = molecular target: T1, V1aR (Homo sapiens, UniProt P37288); assay: Ca2+ mobilization in cells stably expressing V1aR (FLIPR, antagonist mode); assay type: cell-based; conditions: V1a-CHO stably transfected cell line
T1 construct: expressed in transfected cells; host or cells: V1a-CHO stably transfected cell line
Text: Test Example 2. Determination of the Effect of the Compound of the Present Disclosure on Ca^2+ Mobilization in Cells Stably Expressing V1aR
To measure the antagonistic effect of the compound of the present disclosure on V1aR activity expressed in the V1a-CHO stably transfected cell line.
• F-12 (Hyclone, SH30026.01) • FLIPR CALCIUM 6 ASSAY KIT (Molecul Device, R8191) • Fetal Bovine Serum (FBS) (AusGeneX, FBS500-S) • Hygromycin B (Solarbio, H8080-1g) • DMSO (Sigma, D4540) • HBSS (Gibco 14025-092) • Probenecid (MCE, HY—B0545) • 0.36 mL 96 Round V-bottom Deep Well Plates for Laboratory (Biaosen P-0.36-BSA-96) • 384-well conical bottom polypropylene plate (Nunc, 264573) • Corning® 384-well Flat Clear Bottom Black Polystyrene TC-treated Microplates (Corning 3764)
• Biological safety cabinet (ECSO, AC2-6S1-TC) • Carbon dioxide cell incubator (ECSO, CCI-170B-8) • Inverted microscope (Olympus, CKX53) • Microplate low-speed centrifuge (Xiangzhi, TD5B) • FLIPR® Penta (Molecul Device, 5.0)
• 1. Cell plating: V1a-CHO cells were digested and harvested, resuspended and counted, and then inoculated into a 384-well cell plate at a density of: 1.2×10^4 cells/25 μL/well. The cell plate was then incubated in an incubator at 37° C. with 5% CO2 for about 16-20 h. • 2. The next day: after preparing Assay Buffer, 20× Component A was thawed to room temperature, diluted with Assay buffer to 1× loading buffer, and placed at room temperature for later use. • 3. The medium was removed from the cell plate, and 40 μL of 1× loading buffer was quickly added to each well. After centrifugation, the cell plate was incubated at 37° C. in the dark for 120 minutes. • 4. The serially diluted positive compound, serially diluted test compound, and agonist working solution were formulated. After mixing the serially diluted positive compound/serially diluted test compound with the agonist at a 1:1 ratio, 20 μL per well was transferred to a 384-well compound source plate. • 5. The cell plate, agonist source plate, and pipette tips were placed into their respective positions in the FLIPR instrument. Using FLIPR Tetra, 10 μL of the diluted agonist from Step 4 was added to each test well, and the data were collected at a wavelength of 515 nm-575 nm. • 6. The signal values were plotted against the compound concentrations, and the curve fitting and IC50 calculation were performed using the nonlinear regression method of GraphPad Prism software.

OTR = molecular target: T2, OTR (Homo sapiens, UniProt P30559); assay: Ca2+ mobilization in cells stably expressing OTR (FLIPR, antagonist mode); assay type: cell-based; conditions: OTR/HEK293 stably transfected cell line
T2 construct: expressed in transfected cells; host or cells: OTR/HEK293 stably transfected cell line
T2 sequence (P30559 1-389): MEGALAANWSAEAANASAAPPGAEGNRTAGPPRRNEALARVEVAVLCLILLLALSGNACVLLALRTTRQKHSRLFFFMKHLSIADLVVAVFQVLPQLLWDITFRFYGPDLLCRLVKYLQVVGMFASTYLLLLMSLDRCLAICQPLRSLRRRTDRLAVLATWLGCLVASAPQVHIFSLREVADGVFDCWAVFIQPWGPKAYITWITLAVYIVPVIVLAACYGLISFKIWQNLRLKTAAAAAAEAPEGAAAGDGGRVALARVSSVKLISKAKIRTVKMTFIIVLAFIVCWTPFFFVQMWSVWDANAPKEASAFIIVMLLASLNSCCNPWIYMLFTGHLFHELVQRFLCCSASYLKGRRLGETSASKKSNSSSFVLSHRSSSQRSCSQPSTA
In short: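 Antagonist mode: test compounds in 10-point 3-fold series were added on FLIPR to Fluo-4-loaded HEK293 cells stably expressing OTR, followed by reference agonist at its EC80, determined beforehand. The Max-Min calcium fluorescence response was fitted in Prism.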

T1 sequence (P37288 whole entry, species assumed): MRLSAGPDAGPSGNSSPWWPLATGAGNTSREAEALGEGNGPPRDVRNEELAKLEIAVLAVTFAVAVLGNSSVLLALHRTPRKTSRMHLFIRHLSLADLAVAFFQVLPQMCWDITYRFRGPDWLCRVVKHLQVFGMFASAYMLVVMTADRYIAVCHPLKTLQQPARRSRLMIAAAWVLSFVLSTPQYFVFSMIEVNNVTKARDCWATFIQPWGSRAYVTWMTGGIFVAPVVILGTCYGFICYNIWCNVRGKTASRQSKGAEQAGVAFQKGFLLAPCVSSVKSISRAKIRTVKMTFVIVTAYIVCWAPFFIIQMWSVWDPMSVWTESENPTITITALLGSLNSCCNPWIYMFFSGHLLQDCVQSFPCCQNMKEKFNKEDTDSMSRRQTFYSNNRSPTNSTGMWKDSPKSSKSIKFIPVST

IC50 (V1aR) [nM]	IC50 (OTR) [nM]	Compound
223	13	CO/N=C1/C[C@@H](C(C)O)N(C(=O)c2ccc(-c3ccccc3C)cc2)C1 (mixture of isomers) [Example C0067, (S, Z, RS)-(2-(1-Hydroxyethyl)-4-(methoxyimino)pyrrolidin-1-yl)(2′-methyl-[1,1′-biphenyl]-4-yl)methanone]
529	21.9	CO/N=C1/C[C@@H](CO)N(C(=O)c2cc(F)c(-c3cccc(C#N)c3C)c3c2OCCO3)C1 [Example C0160, 3-(6-Fluoro-8-((S,Z)-2-(hydroxymethyl)-4-(methoxyimino)pyrrolidine-1-carbonyl)-2,3-dihydrobenzo[b][1,4]dioxin-5-yl)-2-methylbenzonitrile]
9060	16.1	CO/N=C1/C[C@@H](CO)N(C(=O)c2ccc(-c3ccc(F)c(C#N)c3C)c3c2OCO3)C1 [Example C0123, (S, Z)-6-Fluoro-3-(7-(2-(hydroxymethyl)-4-(methoxyimino)pyrrolidine-1-carbonyl)benzo[d][1,3]dioxolan-4-yl)-2-methylbenzonitrile]
2760	10.2	CO/N=C1/C[C@@H](CO)N(C(=O)c2ccc(-c3cccc(Cl)c3C)cc2)C1 [Example C0056, (S, Z)-(3′-Chloro-2′-methyl-[1,1′-biphenyl]-4-yl)(2-(hydroxymethyl)-4-(methoxyimino)pyrrolidin-1-yl)methanone]
1560	55.3	CO/N=C1\C[C@@H]([C@@H](C)O)N(C(=O)c2ccc(-c3cccc(C#N)c3C)cc2)C1 (single isomer, unassigned) [Example C0113]
1360	23.2	CO/N=C1/C[C@@H](CO)N(C(=O)c2ccc(-c3cccc(C#N)c3C)c3c2OCCCO3)C1 [Example A0235, (S,Z)-3-(9-(2-(Hydroxymethyl)-4-(methoxyimino)pyrrolidine-1-carbonyl)-3,4-dihydro-2H-benzo[b][1,4]dioxepin-6-yl)-2-methylbenzonitrile]
584	11	CO/N=C1/C[C@@H](CO)N(C(=O)c2ccc(-c3cccc(C)c3C)c(OC)c2)C1 [Example C0064, (S, Z)-(2-(Hydroxymethyl)-4-(methoxyimino)pyrrolidin-1-yl)(2-methoxy-2′,3′-dimethyl-[1,1′-biphenyl]-4-yl)methanone]
2400	11.2	CO/N=C1/C[C@@H](CO)N(C(=O)c2ccc(-c3cccc(C)c3C)c(C)c2)C1 [Example C0047, (S, Z)-(2,2′,3′-Trimethyl-[1,1′-biphenyl]-4-yl)(2-(hydroxymethyl)-4-(methoxyimino)pyrrolidin-1-yl)methanone]
8370	11.4	CO/N=C1\C[C@@H](CO)N(C(=O)c2ccc(-c3cccc(C#N)c3C)c3c2OCCO3)C1 [Example C0132, (S,E)-3-(8-(2-(Hydroxymethyl)-4-(methoxyimino)pyrrolidine-1-carbonyl)-2,3-dihydrobenzo[b][1,4]dioxin-5-yl)-2-methylbenzonitrile]
1850	22.1	CO/N=C1/C[C@@H](CO)N(C(=O)c2ccc(-c3ccccc3C)c(C)c2)C1 [Example C0046, (S, Z)-(2′,2-Dimethyl-[1,1′-biphenyl]-4-yl)(2-(hydroxymethyl)-4-(methoxyimino)pyrrolidin-1-yl)methanone]
3210	17.9	CO/N=C1/C[C@@H](CO)N(C(=O)c2ccc(-c3cccc(C(F)(F)F)c3C)cc2)C1 [Example C0060, (S,Z)-(2-(Hydroxymethyl)-4-(methoxyimino)pyrrolidin-1-yl)(2′-methyl-3′-(trifluoromethyl)-[1,1′-biphenyl]-4-yl)methanone]
13200	55.9	CON=C1CC(CO)N(C(=O)c2ccc(-c3cccc(C#N)c3C)c3c2OCO3)C1 (single isomer, unassigned) [Example C0098]
2920	11.1	CO/N=C1/C[C@@H](CO)N(C(=O)c2ccc(-c3cccc(C)c3C)c3c2CCC3)C1 [Example C0083, (S,Z)-(7-(2,3-Dimethylphenyl)-2,3-dihydro-1H-inden-4-yl)(2-(hydroxymethyl)-4-(methoxyimino)pyrrolidin-1-yl)methanone]
1370	13.5	CO/N=C1/C[C@@H](CO)N(C(=O)c2ccc(-c3cccc(C)c3C)cc2OC)C1 [Example C0038, (S,Z)-(2-(Hydroxymethyl)-4-(methoxyimino)pyrrolidin-1-yl)(3-methoxy-2′,3′-dimethyl-[1,1′-biphenyl]-4-yl)methanone]
747	8.35	CO/N=C1/C[C@@H](CO)N(C(=O)c2cc(F)c(-c3cccc(C#N)c3C)c3c2OCO3)C1 [Example C0162, 3-(5-Fluoro-7-((S,Z)-2-(hydroxymethyl)-4-(methoxyimino)pyrrolidine-1-carbonyl)benzo[d][1,3]dioxol-4-yl)-2-methylbenzonitrile]
4050	7.07	CO/N=C1/C[C@@H](CO)N(C(=O)c2ccc(-c3c(F)ccc(C#N)c3C)c3c2OCCO3)C1 [Example C0150, 4-Fluoro-3-(8-((S,Z)-2-(hydroxymethyl)-4-(methoxyimino)pyrrolidine-1-carbonyl)-2,3-dihydrobenzo[b][1,4]dioxin-5-yl)-2-methylbenzonitrile]
732	34.4	CO/N=C1/C[C@@H](CO)N(C(=O)c2ccc(-c3cccc(C)c3C)c(OCCO)c2)C1 [Example A0148, (S, Z)-(2-(2-Hydroxyethoxy)-2′,3′-dimethyl-[1,1′-biphenyl]-4-yl)(2-(hydroxymethyl)-4-(methoxyimino)pyrrolidin-1-yl)methanone]
1480	49.8	CO/N=C1/C[C@@H](CO)N(C(=O)c2ccc(-c3cccc(C#N)c3C)c3c2cnn3C)C1 [Example A0167, 3-(4-[(2S,4Z)-2-(Hydroxymethyl)-4-(methoxyimino)pyrrolidine-1-carbonyl]-1-methyl-1H-indazol-7-yl)-2-methylbenzonitrile]
5820	13.1	CO/N=C1/C[C@@H](CO)N(C(=O)c2ccc(-c3cccc(C)c3C)c(C(F)F)c2)C1 [Example A0134, (S,Z)-(2-(Difluoromethyl)-2′, 3′-dimethyl-[1,1′-biphenyl]-4-yl)(2-(hydroxymethyl)-4-(methoxyimino)pyrrolidin-1-yl)methanone]
20000	46.8	CO/N=C1/C[C@@H](CO)N(C(=O)c2ccc(-c3ccc(C#N)c(C)c3C)cc2)C1 [Example C0075, (S, Z)-4′-(2-(Hydroxymethyl)-4-(methoxyimino)pyrrolidine-1-carbonyl)-2,3-dimethyl-[1,1′-biphenyl]-4-carbonitrile]
1140	32.9	CO/N=C1/C[C@@H](CO)N(C(=O)c2ccc(-c3cccc(C(F)F)c3C)c3c2OCO3)C1 [Example C0118, (S, Z)-(7-(3-(Difluoromethyl)-2-methylphenyl)benzo[d][1,3]dioxolan-4-yl)(2-(hydroxymethyl)-4-(methoxyimino)pyrrolidin-1-yl)methanone]
1850	24.1	CO/N=C1/C[C@@H](CO)N(C(=O)c2ccc(-c3cccc(C#N)c3C)c(Cl)c2)C1 [Example A0246, 3-(2-Chloro-4-[(2S,4Z)-2-(hydroxymethyl)-4-(methoxyimino)pyrrolidine-1-carbonyl]phenyl)-2-methylbenzonitrile]

Compound	IC50 (V1aR) [nM]	IC50 (OTR) [nM]
CO/N=C1/C[C@@H](CO)N(C(=O)c2ccc(-c3cccc(C#N)c3C)cc2OC)C1 [Example A0243]	7360	34.1
